Data from US20110189174A1, “COMPOSITIONS AND METHODS FOR TREATING, REDUCING, AMELIORATING, ALLEVIATING, OR INHIBITING PROGRESSION OF, PATHOGENIC OCULAR NEOVASCULARIZATION” (priority 2010, published 2011).
Values joined by “and” are separate entries in the source; they are usually repeats but may differ in a detail not shown here. Equal entries are not always repeated. Marks after values point to notes of the source that are not given here.

Key:
[1] = tested on: human retinal endothelial cells (HREC); assay: PMA-induced HREC network formation in fibrin gel; assay type: cell-based; settings: PMA 25 ng/mL, vs PMA control
Method: Prior to the start of the experiment, HREC from Cell Systems were cultured in flask in CS-C complete medium. The tube formation assay was performed in a 96-well plate pre-coated with fibrin gel. HREC were collected from flasks and re-suspended 1% FBS EBM-2 medium. Cells were pre-incubated with the integrin antagonists, echistatin or vehicle control for 30 min before loading onto the fibrin gel. Images were taken at 9 h.
Thrombin solution and fibrinogen solutions were allowed to thaw at room temperature and 37° C. water bath, respectively. Fibrinogen solution at 30 μL was added into the desired number of wells in a 96-well plate. Plate was gently shaken to ensure uniform coverage of fibrinogen solution in the well. Thrombin at 20 μL was added into each well. The plate was gently shaken immediately to ensure the thrombin was mixed well with fibrinogen. The plate was placed at 37° C. overnight to allow the fibrin gel to polymerize.
HREC were trypsinized at about 80% confluence and counted by standard hemocytometer methods. After deactivating trypsin with 5 mL of 10% FBS EBM-2 medium, the cells were centrifuged (800 rpm, 8 min) and re-suspended at 2×10^5 cells/mL in 1% FBS EBM-2 medium
Cells were pre-incubated with integrin compounds or echistatin at 37° C., 5% CO2, and 95% humidity for 30 minutes before mixing with PMA medium. The final concentrations of all agents are shown in the design table. The 100 μL of the cell mixture was added onto the gel and cells were cultured at 37° C., 5% CO2, and 95% humidity. Images were taken at different time points.
The network formation scoring system (a five point-scale)
Each well in one group was given a score and then averaged. Data were expressed as mean±SEM of network formation scores. Statistical analysis was performed using a one-way ANOVA-Dunnett's test in raw data, and p<0.05 was considered statistically significant. Data analysis was performed using statistical analysis software JMP (SAS Institute, Cary, N.C.).

[2] = tested on: laser-induced CNV in monkeys; assay: Laser-induced choroidal neovascularization in monkeys, fluorescein angiography lesion grading; assay type: in vivo, cynomolgus monkeys (Macaca fascicularis); settings: for Incidence of CNV lesions, Lesion Grade I (% Total) / Incidence of CNV lesions, Lesion Grade II (% Total) / Incidence of CNV lesions, Lesion Grade III (% Total) / Incidence of CNV lesions, Lesion Grade IV (% Total): intravitreal, both eyes, days 1 and 15, 1.5 mg/eye (Lucentis 0.5 mg/eye); for Overall grade IV lesions versus vehicle control group: all time points together, Chi square test; for Incidence of grade IV lesions compared to vehicle control: days 22, 29 and 37, 1.5 mg/eye in oil formulation; for Overall Grade IV lesions (%): days 22, 29 and 37 summed, 1.5 mg/eye intravitreal days 1 and 15
Method: Study was performed in three phases. In phases Ia and Ib, the behavior of the suspension in aqueous (Ia) and oil (Ib) formulations, and multiple dosing regimens as well as any adverse effect due to multiple dosing at 3 mg/eye (Ia) or 1.5 (Ib) were investigated. In phase II test articles were administered twice during the study period on days 1 and 15. Eyes were examined with an indirect ophthalmoscope and fundus camera.
Adult male cynomolgus monkeys (Macaca fascicularis) age 2-7 years old were used to test the efficacy of BOL-303050-X, BOL-303054-X and BOL-303055-X. Lucentis® (ranibizumab) was used as historic control.
Both eyes of 46 monkeys were examined at baseline and then 42 animals were randomized into 5 groups. On Phase II Day 8 of Dosing, the animals were anesthetized with ketamine and dexmedetomidine and the macula of each eye of the animals in Groups 1 through […] underwent laser treatment by a retinal surgeon with a 532 nm diode green laser (OcuLight GL, IRIDEX Corp. Inc., Mountain View, Calif.) using a slit lamp delivery system and a Kaufman-Wallow (Ocular Instruments Inc, Bellevue, Wash.) plano fundus contact lens with Gonak (2.5%) as the coupling agent. Nine laser spot areas were symmetrically placed in the macula of each eye. The laser parameters included a 75 micron spot size and 0.1 second duration. The power setting used was assessed by the ability to produce a blister and a small hemorrhage. […] For areas not adjacent to the fovea, the initial power setting was 500 mW; if a second spot was placed, the power was set to 650 mW. For the area adjacent to the fovea the power settings were 400 mW (initial treatment) and 550 mW (second treatment). At the discretion of the retinal surgeon, power settings were adjusted based on observations at the time of laser. Power setting used for each spot was documented as well as number of burns per spot and whether hemorrhage occurred.
Once the phase Ib study was completed, and it was established that the drug suspension in oil would not interfere with either laser administration, evaluation of CNV or cause adverse effects, phase II was initiated. On days 1, and 15 both eyes of monkeys received 50 μL of Lucentis (0.5 mg/eye), vehicle (0 mg/eye), BOL-303050-X (1.5 mg/eye), BOL-303054-X (1.5 mg/eye) or BOL-303055-X (1.5 mg/eye) (Table 2). Intravitreous injection was performed for each by eye aiming towards mid-vitreous body. Dosing in the right eye was alternated for successive doses (as applicable) at approximately the 11 o'clock and 10 o'clock positions. Dosing in the left eye was alternated for successive doses (as applicable) from approximately the 1 o'clock and 2 o'clock positions.
Animals were anesthetized with ketamine and dexmedetomidine. A topical anesthetic (0.5% proparacaine) was instilled in each eye before dose administration. A wire speculum was used to retract the eyelids. The eyes were cleaned with a 2.5% povidone iodine solution and then rinsed with sterile saline. Each animal was dosed using 1 cc tuberculin syringes and 30 gauge needles.
FA was performed at baseline, on days 22, 29 and 37 (approximately 14, 21 and 28 days post-laser). Digital ocular photographs were taken in conjunction with FA. The FA procedure is well known by people skilled in the art of ophthalmology.
Evaluation of FA was done according to the following grading system for evidence of excessive permeability (fluorescein leakage) or any other abnormalities.
Grade IV lesions are considered to be clinically significant as these most closely resemble the active forms of classical CNV seen in various human retinal disorders, including age-related macular degeneration. Comparison of the incidence of Grade IV lesions between treatment groups was evaluated.
Grade IV lesions were analyzed using either Fisher's exact probability test (2-Tail) or Chi square test (χ2). […]

| Structure (SMILES) | Inhibition of PMA-induced HREC network formation in fibrin gel ([1]; 10 nM) | Incidence of CNV lesions, Lesion Grade I (% Total) ([2]; Day 22) | Incidence of CNV lesions, Lesion Grade II (% Total) ([2]; Day 22) | Incidence of CNV lesions, Lesion Grade III (% Total) ([2]; Day 22) | Incidence of CNV lesions, Lesion Grade IV (% Total) ([2]; Day 22) | Incidence of CNV lesions, Lesion Grade I (% Total) ([2]; Day 29) | Incidence of CNV lesions, Lesion Grade II (% Total) ([2]; Day 29) | Incidence of CNV lesions, Lesion Grade III (% Total) ([2]; Day 29) | Incidence of CNV lesions, Lesion Grade IV (% Total) ([2]; Day 29) | Incidence of CNV lesions, Lesion Grade I (% Total) ([2]; Day 37) | Incidence of CNV lesions, Lesion Grade II (% Total) ([2]; Day 37) | Incidence of CNV lesions, Lesion Grade III (% Total) ([2]; Day 37) | Incidence of CNV lesions, Lesion Grade IV (% Total) ([2]; Day 37) | Overall grade IV lesions versus vehicle control group [2] | Incidence of grade IV lesions compared to vehicle control [2] | Overall Grade IV lesions (%) [2] | Inhibition of PMA-induced HREC network formation in fibrin gel ([1]; 1 nM) |
| --- | --- | --- | --- | --- | --- | --- | --- | --- | --- | --- | --- | --- | --- | --- | --- | --- | --- |
| CCc1nc(NC[C@H](NC(=O)OCc2ccccc2)C(=O)O)c(C)c(N2CCC(c3ccc4c(n3)NCCC4)CC2)n1 [BOL-303055-X] | significantly inhibited | 73:162 (45.06) % | 6:162 (3.7) % | 6:162 (3.70) % | 47.53% and 77:162 (47.53) % | 75:162 (46.3) % | 5:162 (3.09) % | 12:162 (7.41) % | 43.21% and 70:162 (43.21) % | 80:162 (49.38) % | 7:162 (4.32) % | 5:162 (3.68) % | 44.44% and 72:162 (44.44) % | significantly increased | higher incidences of grade IV lesions compared to the vehicle control | (45.06)* % |  |
| COc1ccc(S(=O)(=O)N[C@@H](CNc2nc(C)nc(N3CCC(c4ccc5c(n4)NCCC5)CC3)c2C)C(=O)O)cc1 [BOL-303050-X] | significantly inhibited | 126:148 (85.14) % | 12:148 (8.11) % | 4:148 (2.70) % | 4.05% and 6:148 (4.05) % | 132:150 (88.00) % | 11:150 (7.33) % | 3:150 (2.00) % | 2.67% and 4:150 (2.67) % | 136:162 (83.95) % | 15:162 (9.26) % | 8:162 (4.94) % | 1.85% and 3:162 (1.85) % | significantly reduced | reduced compared to vehicle-treated eyes | (2.83)* % | significantly inhibited |
| COc1c(NC[C@H](NC(=O)OCc2ccccc2)C(=O)O)ncnc1N1CCC(c2ccc3c(n2)NCCC3)CC1 [BOL-303054-X] | not statistically significant | 79:133 (59.40) % | 1:133 (0.75) % | 8:133 (6.01) % | 45:133 (33.83) % | 80:133 (60.15) % | 5:133 (3.76) % | 2:133 (1.50) % | 46:133 (34.59) % | 83:136 (61.03) % | 6:136 (4.41) % | 5:136 (3.68) % | 41:136 (30.15) % | not statistically significant | higher incidences of grade IV lesions compared to the vehicle control | (32.84) % | not statistically significant |
